The values that follow come from publication PMC3171603 (Bioorganic & medicinal chemistry letters, 2011).

Data set [1] deals with HIV-1 NL4-3. The experiment in a line: HIV-1 infectivity assay. Format: cell-based. The settings on record: for anti-HIV activity: TZM-bl cells, statement in words.
Data set [2] in a line: Cytotoxicity: growth inhibition of uninfected TZM-bl cells. Format: cell-based. The settings on record: human.

Broadly, the EC50 is the midpoint of the concentration-response curve. A low value points to greater potency. In general, CC50 refers to the concentration that lowers cell viability or growth by half. Read a low CC50 as harm at low concentration.

Compound `CCc1cc(=O)c2ccc3c(c2o1)[C@@H](OC(=O)C12CCC(C)(C(=O)O1)C2(C)C)[C@@H](OC(=O)C12CCC(C)(C(=O)O1)C2(C)C)C(C)(C)O3` (some centres unmarked) [Compound 2-Ethyl-DCP, 2-ethyl-DCP, reference compound] yielded an EC50 in data set [1] (Human immunodeficiency virus 1, NL43, TZM-bl) of 0.12 µM. In data set [2], it took 14.3 µM to reach half-maximal cytotoxicity (CC50).

In the case of `CCc1cc(=O)c2ccc3c(c2o1)[C@H](OC(=O)C12CCC(C)(C(=O)O1)C2(C)C)[C@H](OC(=O)C12CCC(C)(C(=O)O1)C2(C)C)[C@@H](C)S3` (some centres unmarked) [Compound 6b], the anti-HIV activity entry in data set [1] is “remarkably reduced or even completely abolished”. `Cc1cc(=O)oc2c3c(ccc12)SC(C)(C)[C@H](OC(=O)[C@@]12CC[C@@](C)(C(=O)O1)C2(C)C)[C@@H]3OC(=O)[C@@]12CC[C@@](C)(C(=O)O1)C2(C)C` [Compound 8a, 4-Methyl-1′-thia-DCK] gave a CC50 in data set [2] above 30.6 µM. Regarding `Cc1cc(=O)oc2c3c(ccc12)SC(C)(C)[C@@H](OC(=O)[C@@]12CC[C@@](C)(C(=O)O1)C2(C)C)[C@H]3OC(=O)[C@@]12CC[C@@](C)(C(=O)O1)C2(C)C` [Compound 8b], the anti-HIV activity entry in data set [1] is “remarkably reduced or even completely abolished”.
